The results in this text go back to patent publication US5387600A, “Treating arteriosclerosis using benzimidazole compositions” (priority 1992, dated 1995).

Like-named read-outs stand apart in the source and are kept apart here.

By LD50 is commonly meant the dose expected to kill half of the subjects tested.

Data set [1] has as its system mouse abdominal cavity macrophage. Put plainly: In vitro test for suppressing effect of macrophage-foaming reaction. Format: cell-based. Conditions: compared with control; for activity at 5 µM: Mus musculus, Macrophage, 16 h. Here is the method: (1) In vitro test for suppressing effect of macrophage-foaming reaction using mouse abdominal cavity macrophage
A 15-week old ICR female mouse (Japan SLC) was amputated at its neck and exsanguinated. Then, Hanks buffer (Nissui Pharmaceutical Co., Ltd.) was injected intraperitoneally. After massaging the abdominal part, the buffer was recovered rapidly and centrifuged at 1,000 rpm for 5 minutes to collect the abdominal cavity macrophage. Then, the collected abdominal cavity macrophage was suspended in GIT medium (Wako Pure Chemical Industry) and inoculated on a 24-well microplate. After culturing the macrophage for 2 hours at 37° C. in 5% CO2, the medium was changed into Dulbecco modified Eagle's MEM medium (Nissui Pharmaceutical Co., Ltd.). After further culturing the macrophage for 16 hours at 37° C. in 5% CO2, the following substances were added in order:
1 Test compounds: solutions in DMSO (Wako Pure Chemical Industry) 1 ml of the solutions were prepared, optionally diluted and the diluted solutions were added to individual wells (500 μl) in the amount of 5μl.
PC: phosphatidylcholine (Funakoshi)
PS: phosphatidylserine (Funakoshi)
DCP: dicetylphosphate (Funakoshi)
CHOL.: cholesterol (Sigma)
3 ^3 H-Oleic acid (Amersham Japan)
Then, after still further culturing the macrophage for 16 hours at 37° C. in 5% CO2, the lipid fraction was extracted with chloroform and methanol. The extracted lipid fraction was subjected to TLC (hexane:ether:acetic acid=70:30:1), the separated bands of CE (cholesterylester) and TG (triglyceride) were borne off from the TLC plate and then the radioactivities thereof were measured using a liquid scintillation counter (PACKARD BH-22). Yields of cholesteryl ester were calculated by comparing with a control.

Data set [2] relates to rabbit fed high-cholesterol feed. In words: Blood lipid lowering effect in rabbit fed high-cholesterol feed. The class given is in vivo. Conditions: New Zealand White female rabbits, 100 mg/kg/day in feed for 7 successive days. An excerpt:
(2) Blood lipid lowering effect in rabbit fed high-cholesterol feed (i) New Zealand White female rabbits having body weight of about 2 kg were fed feed having high cholesterol content (100 g/day/rabbit: ORC-4 manufactured by Oriental Yeast, containing 0.5% of cholesterol and 0.5% of olive oil) for 7 days to produce hypercholesterolemia.
Subsequently, one group consisting of 3 rabbits (treatment group) was fed the same feed in the same amount, except that the feed further contained test compound (8) in the amount of 100 mg/kg/day/rabbit, for 7 successive days. On the other hand, as a control, another group consisting of 3 rabbits was fed the same feed in the same amount without any test compound.
(§1) A small amount of blood was drawn from the parotic vein of every rabbit once a week and was measured for amount of blood total cholesterol using IATROLIPO TC manufactured by Iatron Laboratories Inc.
Thus, it is clear that test compound (8) has an excellent lowering effect of the blood cholesterol. (ii) New Zealand White female rabbits having body weight of about 2 kg were fed feed having high cholesterol content (100 g/day/rabbit: ORC-4 manufactured by Oriental Yeast, containing 0.5% of cholesterol and 0.5% of olive oil) for 7 days to produce hypercholesterolemia. […]

The nature of another data set: Acute toxicity test. Conditions: mouse, in vivo; oral, suspension in 0.5% Tween 80, 8-week old ddy mice. An excerpt: Compounds (8) and (53) each was suspended in 0.5% Tween 80 solution. Six 8-week old ddy mice were orally administered the suspensions respectively and were observed on acute toxicity.
For data set [3], the system named is rabbit fed feed having high cholesterol content. Put plainly: Arteriosclerosis focus formation-regressing effect in rabbit fed feed having high cholesterol content. The class given is in vivo. Conditions: 100 mg/kg/day in feed for 20 successive days. From the text:
(4) Arteriosclerosis focus formation-regressing effect in rabbit fed feed having high cholesterol content
New Zealand White female rabbits having body weight of about 2 kg were fed feed having high cholesterol content (100 g/day/rabbit: ORC-4 manufactured by Oriental Yeast, containing 0.5% of cholesterol and 0.5% of olive oil) for 7 days to produce hypercholesterolemia.
Subsequently, one group consisting of 3 rabbits (treatment group) was fed the same feed in the same amount, except that the feed further contained test compound (53) in the amount of 100 mg/kg/day/rabbit, for 20 successive days. On the other hand, as a control, another group consisting of 3 rabbits was fed the same feed in the same amount without any test compound.
After 20 weeks from the administration of the test compound, the aortas and arch part thereof were removed from each rabbit and the blood vessels were opened. Comparing the treatment group with the control group, it was observed that the arteriosclerosis focus formation was suppressed effectively in the treatment group.

In the next data set the test system is rabbit fed normal feed. In words: Blood lipid lowering effect in rabbit fed normal feed. The class given is in vivo. Conditions: New Zealand White female rabbits, 100 mg/kg/day in feed for 7 successive days. On the procedure: (3) Blood lipid lowering effect in rabbit fed normal feed (i) New Zealand White female rabbits having body weight of about 2 kg were fed normal feed (100 g/day/rabbit: ORC-4 manufactured by Oriental Yeast) for 7 days.
Subsequently, one group consisting of 3 rabbits (treatment group) was fed the normal feed in the same amount, except that the feed further contained test compound (8) in the amount of 100 mg/kg/day/rabbit, for 7 successive days. As a control, another group consisting of 3 rabbits was fed the normal feed in the same amount without any test compound.
A Small amount of blood was drawn from the parotic vein of every rabbit once a week and was measured for amount of blood total cholesterol using IATROLIPO TC manufactured by Iatron Laboratories Inc.
Thus, it is clear that test compound (8) has an excellent blood cholesterol lowering effect not only on rabbits fed high-cholesterol feed but also on rabbits fed normal feed. (ii) New Zealand White female rabbits having body weight of about 2 kg were fed normal feed (100 g/day/rabbit: ORC-4 manufactured by Oriental Yeast) for 7 days. […]
as §1

The mark [4] stands for this setting: cholesteryl ester from 3H-oleic acid, read-out: Yield of CE (%).
Setting [5] is: triglyceride from 3H-oleic acid, read-out: Yield of TG (%).

On to `O=[N+]([O-])c1ccc2nc(CCCCCCCCc3nc4ccc([N+](=O)[O-])cc4[nH]3)[nH]c2c1` [(6), 1,8-bis(5-nitrobenzimidazol-2-yl) octane], for which the activity at 5 µM turned out to be 8% in data set [1] (setting [4]) and 61% in data set [1] (setting [5]).
As for `Cc1cc(C)c(O)c(C(c2cc(C)cc(C)c2O)C(C)C)c1` [(53), 2,2'-isobutylidenebis(4,6-dimethyphenol)], the “fall of amount of blood total cholesterol in comparison with the control group” value was 40% in data set [2] and 20% with rabbit fed normal feed. In addition, the results for the activity at 5 µM in data set [1] (setting [4]) and in data set [1] (setting [5]) were 56% and 92%, respectively. This compound had an LD50 in “Acute toxicity test” of no less than 1000 mg/kg. The “cholesterol deposition to the eye ball” value in data set [3] (after 20 weeks) was “suppressing”. The fatty liver formation entry in data set [3] (after 20 weeks) was “suppressing”. Besides, in data set [3] (aortas examined after 20 weeks), the arteriosclerosis focus formation entry is reported as “suppresses”.
Consider `Cc1cc(C(CCc2ccccc2)c2cc(C)cc(C(C)(C)C)c2O)c(O)c(C(C)(C)C)c1` [(74)], for which the activity at 5 µM in data set [1] (setting [4]) is 65%; in data set [1] (setting [5]) it was 108%.
In the same order, the values of `Cc1cc(C)c(O)c(Cc2cc(C(C)(C)C)cc(C(C)(C)C)c2O)c1` [(66)] are 54% and 108%.
In the same order, the values of `CCCCCCCCCCCCNC(=O)c1ccc2[nH]c(S)nc2c1` [(30)] are 51% and 91%.
In the same order, the values of `CCCCCCCCCC(=O)Nc1ccc2[nH]c(S)nc2c1` [(10)] are 69% and 129%.
As to `Cc1cc(Cc2cc(C)cc(C(C)(C)C)c2O)c(O)c(C(C)(C)C)c1` [(52)], the activity at 5 µM was 38% in data set [1] (setting [4]) and 101% in data set [1] (setting [5]).
As for `CCCCCCCCCCCCCCCCSc1nc2ccccc2[nH]1` [(20)], the activity at 5 µM stood at 49% in data set [1] (setting [4]) and 62% in data set [1] (setting [5]).
For `CCCCCCCCCCCCOC(=O)c1ccc2[nH]c(S)nc2c1` [(34)] the same measures were 50% and 108%.
As for `CCCCCCCCCCCC(=O)Nc1ccc2[nH]cnc2c1` [(47)], the activity at 5 µM in data set [1] (setting [4]) came out at 55%; in data set [1] (setting [5]), 98%.
For the compound `O=C(CSc1nc2ccccc2[nH]1)c1ccccc1O` [(43)], the activity at 5 µM stood at 45% in data set [1] (setting [4]) and 98% in data set [1] (setting [5]).
For `CC(=O)Oc1c(Cc2cc(C)cc(C(C)(C)C)c2O)cc(C)cc1C(C)(C)C` [(58)] the same measures were 45% and 98%.
In the case of `c1ccc(CSc2nc3ccccc3[nH]2)cc1` [(7), 2-benzylthiobenzimidazole], the activity at 5 µM in data set [1] (setting [4]) came to 61%; in data set [1] (setting [5]), 91%.
Consider `CCCCCCCCOc1ccc2[nH]c(S)nc2c1` [(27)], for which the figures for the activity at 5 µM in data set [1] (setting [4]) and in data set [1] (setting [5]) were 51% and 78%, respectively.
As for `CCC(C)c1cc(C(C)CC)c(O)c(C(c2cc(C(C)CC)cc(C(C)CC)c2O)C(C)C)c1` (stereo not drawn) [(65)], the results for the activity at 5 µM in data set [1] (setting [4]) and in data set [1] (setting [5]) were 38% and 101%, respectively.
In the same order, the values of `CCCCCCCCCCCC(=O)Nc1ccc2[nH]c(SC)nc2c1` [(28)] are 53% and 164%.
In the same order, the values of `CCCCCCCCCCCCNS(=O)(=O)c1ccc2[nH]c(S)nc2c1` [(12)] are 52% and 102%.
As for `CCCCCCCCCCCC(=O)Nc1ccc2nc(S)[nH]c2c1` [(8), 5-dodecanoylamino-2-mercaptobenzimidazole], the figures for the “fall of amount of blood total cholesterol in comparison with the control group” value (in data set [2]; with rabbit fed normal feed) were 25% and 20%, respectively. Besides, the results for the activity at 5 µM in data set [1] (setting [4]) and in data set [1] (setting [5]) were 42% and 106%, respectively. Besides, the LD50 in “Acute toxicity test” was no less than 1000 mg/kg.
On to `CCOC(=O)Oc1c(C)cc(C)cc1C(c1cc(C)cc(C)c1O)C(C)C` (stereo not drawn) [(73)], for which the values for the activity at 5 µM in data set [1] (setting [4]) and in data set [1] (setting [5]) were 48% and 90%, respectively.
For `Cc1nc2ccc([N+](=O)[O-])cc2[nH]1` [(5), 2-metyl-5-nitrobenzimidazole] the same measures were 67% and 89%.
`CN1C(=O)C(Cl)C(Sc2nc3ccccc3[nH]2)N(C)C1=O` (stereo not drawn) [(42)]: the “Yield of CE (%)” value in data set [1] (5 μM, cholesteryl ester from 3H-oleic acid, 960 min) is reported as 61%. The “Yield of TG (%)” value in data set [1] (5 μM, triglyceride from 3H-oleic acid, 960 min) was 96%.
On to `Cc1cc(C(c2ccccc2)c2cc(C)cc(C(C)(C)C)c2O)c(O)c(C(C)(C)C)c1` [(60)], for which the activity at 5 µM was 48% in data set [1] (setting [4]) and 96% in data set [1] (setting [5]).
In the same order, the values of `CC(CC(=O)Nc1ccc2[nH]c(S)nc2c1)CC(C)(C)C` (stereo not drawn) [(23)] are 56% and 119%.
For `Cc1cc(C)c(O)c(C(C)(C)c2cc(C)cc(C)c2O)c1` [(62)] the same measures were 61% and 98%.
On to `CCC(C)(C)c1cc(C(C)c2cc(C(C)(C)CC)cc(C(C)(C)CC)c2O)c(O)c(C(C)(C)CC)c1` [(63), 2,2'-ethylidenebis(4,6-di-tert-pentylphenol)], for which the activity at 5 µM was found to be 42% in data set [1] (setting [4]) and 96% in data set [1] (setting [5]).
In the same order, the values of `CCCCCCCC(c1cc(C)cc(C2(C)CCCCC2)c1O)c1cc(C)cc(C2(C)CCCCC2)c1O` [(61)] are 52% and 103%.
For `CCCCCCCCS(=O)(=O)Nc1ccc2[nH]c(S)nc2c1` [(21)] the same measures were 64% and 93%.
For `CCCC(c1cc(C(C)(C)C)cc(C(C)(C)C)c1O)c1cc(C(C)(C)C)cc(C(C)(C)C)c1O` [(56)] the same measures were 51% and 102%.
For `Cc1cc(C)c(O)c(C(CC(C)CC(C)(C)C)c2cc(C)cc(C)c2O)c1` (stereo not drawn) [(54)], the activity at 5 µM was determined as 25% in data set [1] (setting [4]) and 95% in data set [1] (setting [5]).
For `COC(=O)CCCC(C)(C)c1cc(C)cc(Cc2cc(C)cc(C(C)(C)CCCC(=O)OC)c2O)c1O` [(67)] the same measures were 42% and 92%.
